In general, EC50 refers to the concentration that produces a half-maximal response. The Ki is the dissociation constant of the complex between target and ligand, obtained from inhibition or displacement. As a reminder, the Emax is the maximal effect, on the per cent scale that the assay sets.

The values that follow come from ChEMBL document CHEMBL2407030, “Novel nicotinic acetylcholine receptor agonists containing carbonyl moiety as a hydrogen bond acceptor” (Bioorg Med Chem Lett, 2013).

Assay [1] relates to Rattus norvegicus. Kind of assay: Cognitive enhancing effect in rat at 0.003 mg/kg, po by novel object recognition test. In kind it is functional, organism-based. Further details: dose 0.003 mg/kg.
The target of assay [2] is T1, Neuronal acetylcholine receptor; alpha3/beta4 (Homo sapiens, UniProt P30926+P32297). Kind of assay: Agonist activity at human alpha3beta4 nACHR expressed in CHO cell membranes assessed as stimulation of calcium flux by FLIPR assay. In kind it is cell-based. (In general: A change in cytosolic calcium serves as a functional read-out for many receptors and channels.)
T1 sequence (P30926 whole entry): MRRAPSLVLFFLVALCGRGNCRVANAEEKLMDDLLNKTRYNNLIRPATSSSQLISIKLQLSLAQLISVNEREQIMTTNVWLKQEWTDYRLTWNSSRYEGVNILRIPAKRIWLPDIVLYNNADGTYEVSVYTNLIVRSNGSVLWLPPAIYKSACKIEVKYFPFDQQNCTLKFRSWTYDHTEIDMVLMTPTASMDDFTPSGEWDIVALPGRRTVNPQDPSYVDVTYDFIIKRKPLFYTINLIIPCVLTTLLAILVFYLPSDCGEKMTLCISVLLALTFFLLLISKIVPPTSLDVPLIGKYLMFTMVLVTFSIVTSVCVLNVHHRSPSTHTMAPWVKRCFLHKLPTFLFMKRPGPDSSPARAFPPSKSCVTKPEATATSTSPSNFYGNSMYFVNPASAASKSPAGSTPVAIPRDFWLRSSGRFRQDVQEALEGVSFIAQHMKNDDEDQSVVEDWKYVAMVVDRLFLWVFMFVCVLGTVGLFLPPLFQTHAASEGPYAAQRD
T1 sequence (P32297 whole entry): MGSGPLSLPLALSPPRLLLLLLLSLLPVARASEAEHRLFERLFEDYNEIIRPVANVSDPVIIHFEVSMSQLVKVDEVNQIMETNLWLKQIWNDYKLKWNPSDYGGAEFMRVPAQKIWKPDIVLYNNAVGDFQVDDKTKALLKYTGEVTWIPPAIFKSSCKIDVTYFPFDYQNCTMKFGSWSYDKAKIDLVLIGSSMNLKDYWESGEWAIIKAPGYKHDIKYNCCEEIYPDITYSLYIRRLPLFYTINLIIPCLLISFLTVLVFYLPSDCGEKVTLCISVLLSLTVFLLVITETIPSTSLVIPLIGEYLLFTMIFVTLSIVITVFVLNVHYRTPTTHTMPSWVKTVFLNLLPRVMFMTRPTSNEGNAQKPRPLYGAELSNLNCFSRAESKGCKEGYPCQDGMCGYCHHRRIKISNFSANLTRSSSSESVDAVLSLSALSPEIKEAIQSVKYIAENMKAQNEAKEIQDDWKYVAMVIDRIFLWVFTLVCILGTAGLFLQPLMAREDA
The target in assay [3] is T1, Neuronal acetylcholine receptor; alpha3/beta4. Description: Displacement of [3H]Epibatidine from human alpha3beta4 nACHR expressed in CHO cell membranes after 2 hrs by liquid scintillation counting analysis. On the technique in general: Displacement assays read how much labelled ligand stays bound in the presence of the test substance.
Assay [4] has as its target T2, Neuronal acetylcholine receptor; alpha4/beta2 (Homo sapiens, UniProt P17787+P43681). Kind of assay: Displacement of [3H]Nicotine from alpha4beta2 nACHR in human SHEP1 cell membranes after 2 hrs by liquid scintillation counting analysis.
The target in assay [5] is Neuronal acetylcholine receptor subunit alpha-7 (Homo sapiens, UniProt P36544). Description: Displacement of [3H]Epibatidine from human alpha7 nACHR expressed in CHO cell membranes after 2 hrs by liquid scintillation counting analysis.
Sequence of Neuronal acetylcholine receptor subunit alpha-7 (P36544 whole entry): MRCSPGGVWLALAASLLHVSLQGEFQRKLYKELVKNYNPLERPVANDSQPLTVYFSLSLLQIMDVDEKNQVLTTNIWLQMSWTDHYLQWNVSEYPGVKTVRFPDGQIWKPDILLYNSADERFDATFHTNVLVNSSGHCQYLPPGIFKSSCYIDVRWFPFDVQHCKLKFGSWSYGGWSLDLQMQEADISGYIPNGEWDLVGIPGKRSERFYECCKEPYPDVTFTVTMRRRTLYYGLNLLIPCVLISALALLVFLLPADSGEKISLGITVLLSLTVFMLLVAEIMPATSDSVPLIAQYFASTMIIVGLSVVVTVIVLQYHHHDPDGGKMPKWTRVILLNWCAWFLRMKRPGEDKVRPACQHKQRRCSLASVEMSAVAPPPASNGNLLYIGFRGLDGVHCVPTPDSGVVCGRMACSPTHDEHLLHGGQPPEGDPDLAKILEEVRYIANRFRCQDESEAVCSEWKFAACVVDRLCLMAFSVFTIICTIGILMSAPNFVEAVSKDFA
Assay [6] concerns the target T2, Neuronal acetylcholine receptor; alpha4/beta2. Description: Agonist activity at alpha4beta2 nACHR in human SHEP1 cell membranes assessed as stimulation of calcium flux by FLIPR assay relative to control. In kind it is cell-based.
The subject of assay [7] is Rattus norvegicus. Description: Cognitive enhancing effect in rat at 0.1 to 3 mg/kg, po by novel object recognition test. The class given is functional, organism-based.
Assay [8] deals with T1, Neuronal acetylcholine receptor; alpha3/beta4. Description: Agonist activity at human alpha3beta4 nACHR expressed in CHO cell membranes assessed as stimulation of calcium flux by FLIPR assay relative to control. The class given is cell-based.
The target of assay [9] is T2, Neuronal acetylcholine receptor; alpha4/beta2. Description: Agonist activity at alpha4beta2 nACHR in human SHEP1 cell membranes assessed as stimulation of calcium flux by FLIPR assay. The class given is cell-based.

The source made the active and inactive calls. The calls are words filed in the database; no cut-off is given here.

T2 sequence (P17787 whole entry): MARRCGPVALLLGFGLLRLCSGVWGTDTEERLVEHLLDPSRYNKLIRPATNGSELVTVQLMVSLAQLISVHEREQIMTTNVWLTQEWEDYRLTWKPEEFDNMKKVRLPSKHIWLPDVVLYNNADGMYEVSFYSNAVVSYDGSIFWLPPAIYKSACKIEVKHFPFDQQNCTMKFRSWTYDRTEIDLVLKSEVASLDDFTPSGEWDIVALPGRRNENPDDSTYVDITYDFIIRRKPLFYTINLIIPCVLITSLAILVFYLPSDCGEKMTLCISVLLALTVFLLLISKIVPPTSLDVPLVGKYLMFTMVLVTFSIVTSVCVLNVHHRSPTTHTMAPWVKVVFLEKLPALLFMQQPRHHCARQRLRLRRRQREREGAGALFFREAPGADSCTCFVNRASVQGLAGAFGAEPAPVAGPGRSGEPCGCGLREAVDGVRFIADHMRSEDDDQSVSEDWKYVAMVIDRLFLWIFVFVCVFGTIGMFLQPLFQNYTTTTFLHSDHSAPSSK
T2 sequence (P43681 whole entry): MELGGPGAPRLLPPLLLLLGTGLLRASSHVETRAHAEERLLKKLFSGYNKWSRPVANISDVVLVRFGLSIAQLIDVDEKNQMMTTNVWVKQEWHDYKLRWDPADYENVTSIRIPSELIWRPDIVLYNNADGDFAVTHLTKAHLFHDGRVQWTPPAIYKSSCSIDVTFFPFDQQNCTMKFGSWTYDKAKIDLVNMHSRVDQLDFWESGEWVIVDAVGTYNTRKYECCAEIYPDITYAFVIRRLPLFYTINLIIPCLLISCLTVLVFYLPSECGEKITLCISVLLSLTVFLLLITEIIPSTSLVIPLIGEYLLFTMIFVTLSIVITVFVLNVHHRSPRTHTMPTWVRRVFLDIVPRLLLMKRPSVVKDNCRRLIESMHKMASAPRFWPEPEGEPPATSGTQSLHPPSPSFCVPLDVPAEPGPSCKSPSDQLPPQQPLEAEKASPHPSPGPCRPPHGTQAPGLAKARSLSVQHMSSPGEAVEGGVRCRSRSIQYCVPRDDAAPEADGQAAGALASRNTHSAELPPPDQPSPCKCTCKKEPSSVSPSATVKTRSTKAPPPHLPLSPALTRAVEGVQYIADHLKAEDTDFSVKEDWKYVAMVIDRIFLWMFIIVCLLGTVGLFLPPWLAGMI

As for `CCC(=O)N1CC2CNCC2C1` (mixture of isomers), the result in assay [1] and in [7] was Active. Besides, the EC50 in assay [2] amounted to 18 µM; in [9] it was 1.3 µM. Besides, the inhibition constant Ki in assay [3] was 2.1 µM; in [4] it was 0.012 µM; in assay [5], 4 µM. In addition, the maximal response (Emax) was 120% in [6] and 130% in [8].
